In US20230321008A1, “INHIBITORS OF ACID SPHINGOMYELINASE FOR PREVENTING AND TREATING THE COVID-19 DISEASE” (priority 2020, published 2023):
“Also recorded” adds a separate entry of the source.

Experiments:
[1] = test system: severe COVID-19; assay: Example 2: multicenter observational retrospective cohort study, FIASMA medication use at baseline and intubation or death in patients hospitalized for severe COVID-19; type: in vivo, human; settings: vs no FIASMA medication
Excerpt: We included all adults aged 18 years or over who have been hospitalized in these medical centers for severe COVID-19. COVID-19 was ascertained by a positive reverse-transcriptase-polymerase-chain-reaction (RT-PCR) test from analysis of nasopharyngeal or oropharyngeal swab specimens. Severe COVID-19 at admission was defined as having at least one of the following criteria: respiratory rate > 24 breaths/min or < 12 breaths/min, resting peripheral capillary oxygen saturation in ambient air < 90%, temperature > 40° C., systolic blood pressure < 100 mm Hg or high lactate levels. AP-HP clinical Data Warehouse initiatives ensure patient information and informed consent regarding the different approved studies through a transparency portal in accordance with European Regulation on data protection and authorization n°1980120 from National Commission for Information Technology and Civil Liberties (CNIL).
We used data from the AP-HP Health Data Warehouse (‘Entrepôt de Données de Santé (EDS)’). This warehouse contains all available clinical data on all inpatient visits for COVID-19 to any Greater Paris University hospital. The data included patient demographic characteristics, vital signs, laboratory test and RT-PCR test results, medication administration data, medication lists during current and past hospitalizations in AP-HP hospitals, current diagnoses, discharge disposition, and death certificates.
We obtained the following data for each patient at the time of the hospitalization: sex; age, which was categorized into 4 classes based on the OpenSAFELY study results (i.e. 18-50, 51-70, 71-80, 81+); hospital, which was categorized into 4 classes following the administrative clustering of AP-HP hospitals in Paris and its suburbs based on their geographical location (i.e., AP-HP Centre - Paris University, Henri Mondor University Hospitals and at home hospitalization; AP-HP Nord and Hôpitaux Universitaires Paris Seine-Saint-Denis; AP-HP Paris Saclay University; and AP-HP Sorbonne University); obesity, which was defined as having a body mass index higher than 30 kg/m^2 or an International Statistical Classification of Diseases and Related Health Problems (ICD-10) diagnosis code for obesity (E66.0, E66.1, E66.2, E66.8, E66.9); self-reported current smoking status; and any medication prescribed according to compassionate use or as part of a clinical trial (e.g. hydroxychloroquine, azithromycin, remdesivir, tocilizumab, sarilumab, or dexamethasone). To take into account possible confounding by indication bias for FIASMA medication, we recorded whether patients had any current diagnosis, based on ICD-10 diagnosis codes, for neoplasms and diseases of the blood (C00-D89); mental disorders (F01-F99); diseases of the nervous system (G00-G99); cardiovascular disorders (I00-I99); respiratory disorders (J00-J99); digestive disorders (K00-K95); dermatological disorders (L00-L99); diseases of the musculoskeletal system (M00-M99); diseases of the genitourinary system (N00-N99); endocrine disorders (E00-E89); and eye-ear-nose-throat disorders (H00-H95).
All medical notes and prescriptions are computerized in Greater Paris University hospitals. Medications including their dosage, frequency, date, and mode of administration were identified from medication administration data or scanned handwritten medical prescriptions, through two deep learning models based on BERT contextual embeddings, one for the medications and another for their mode of administration. The model was trained on the APmed corpus, a previously annotated dataset for this task. Extracted medications names were then normalized to the Anatomical Therapeutic Chemical (ATC) terminology using approximate string matching.
FIASMA medication use was defined as receiving at least one FIASMA medication at study baseline, i.e. within the first 24 hours of hospital admission, and before the end of the index hospitalization, intubation or death.

[2] = target: T1, acid sphingomyelinase (ASM) (Homo sapiens, UniProt P17405); settings: cited from earlier work
T1 sequence (P17405 47-631): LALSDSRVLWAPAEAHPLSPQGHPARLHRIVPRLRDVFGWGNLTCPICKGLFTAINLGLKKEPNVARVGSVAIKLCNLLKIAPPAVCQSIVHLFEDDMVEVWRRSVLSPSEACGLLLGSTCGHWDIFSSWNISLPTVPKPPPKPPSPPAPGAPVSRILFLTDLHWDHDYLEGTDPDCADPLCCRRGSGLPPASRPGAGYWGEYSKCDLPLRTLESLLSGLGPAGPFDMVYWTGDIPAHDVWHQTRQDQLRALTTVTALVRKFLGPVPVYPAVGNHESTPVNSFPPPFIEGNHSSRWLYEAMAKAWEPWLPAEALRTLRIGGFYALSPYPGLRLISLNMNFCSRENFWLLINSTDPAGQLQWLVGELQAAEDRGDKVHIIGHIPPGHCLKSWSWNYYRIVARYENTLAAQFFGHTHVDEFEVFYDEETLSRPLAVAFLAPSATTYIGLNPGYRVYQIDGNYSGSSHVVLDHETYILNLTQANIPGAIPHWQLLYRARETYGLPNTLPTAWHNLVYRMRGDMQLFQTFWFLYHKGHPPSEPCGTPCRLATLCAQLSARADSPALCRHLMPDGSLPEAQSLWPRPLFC

[3] = target: Sigma-1 receptors (S1R) (Homo sapiens, UniProt Q99720); settings: cited from earlier work
[4] = test system: glia activation; settings: dependent on glia activation; cited from earlier work
[5] = test system: SARS-CoV-2; settings: in vitro; cited from earlier work
[6] = test system: ceramide-enriched membrane domains; settings: in vitro; cited from earlier work
[7] = test system: SARS-CoV-2; settings: cited from earlier work
[8] = test system: COVID-19; settings: human, in vivo; cited from earlier work

Sigma-1 receptors (S1R), sequence (Q99720 whole entry): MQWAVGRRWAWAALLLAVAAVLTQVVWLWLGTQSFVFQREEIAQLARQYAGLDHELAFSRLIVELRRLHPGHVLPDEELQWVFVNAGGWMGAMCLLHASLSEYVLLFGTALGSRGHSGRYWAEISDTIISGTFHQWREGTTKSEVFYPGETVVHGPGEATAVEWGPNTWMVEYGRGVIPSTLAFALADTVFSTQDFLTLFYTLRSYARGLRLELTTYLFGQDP

Row | SMILES | Association of use at baseline with risk of intubation or death (in words) [1] | In vitro inhibition of acid sphingomyelinase (in words) [2] | Affinity for Sigma-1 receptors (in words) [3] | further results
1 | CCCCc1oc2ccccc2c1C(=O)c1cc(I)c(OCCN(CC)CC)c(I)c1 [Amiodarone, amiodarone] | effective preventive and curative treatments for reducing risk of death or intubation |  |  | 
2 | O=C1CCc2ccc(OCCCCN3CCN(c4cccc(Cl)c4Cl)CC3)cc2N1 [Aripiprazole, aripiprazole] | effective preventive and curative treatments for reducing risk of death or intubation | in vitro inhibit acid sphingomyelinase with varying degrees | low or no affinity for S1R | 
3 | CN(C)CCCN1c2ccccc2Sc2ccc(Cl)cc21 [Chlorpromazine, chlorpromazine] | effective preventive and curative treatments for reducing risk of death or intubation | in vitro inhibit acid sphingomyelinase with varying degrees | low or no affinity for S1R | Anti-inflammatory effect (in words) [4]: anti-inflammatory effect was observed
4 | Clc1ccc2c(c1)CCc1cccnc1C2=C1CCNCC1 [Desloratadine, desloratadine] | effective preventive and curative treatments for reducing risk of death or intubation |  |  | 
5 | CNCC[C@H](Oc1cccc2ccccc12)c1cccs1 [Duloxetine, duloxetine] |  | in vitro inhibit acid sphingomyelinase with varying degrees | low or no affinity for S1R | 
6 | CN(C)C(=O)C(CCN1CCC(O)(c2ccc(Cl)cc2)CC1)(c1ccccc1)c1ccccc1 [Loperamide, loperamide] | effective preventive and curative treatments for reducing risk of death or intubation | in vitro inhibit acid sphingomyelinase with varying degrees |  | 
7 | Fc1ccc([C@@H]2CCNC[C@H]2COc2ccc3c(c2)OCO3)cc1 [Paroxetine, paroxetine] |  | in vitro inhibit acid sphingomyelinase with varying degrees | low or no affinity for S1R | Inhibition of viral replication (in words) [5]: inhibition of viral replication was not observed
8 | CN[C@H]1CC[C@@H](c2ccc(Cl)c(Cl)c2)c2ccccc21 [Sertraline, sertraline] |  | inhibited ASM; also recorded: in vitro inhibit acid sphingomyelinase with varying degrees | low or no affinity for S1R | Formation of ceramide-enriched membrane domains (in words) [6]: inhibited ASM and the formation of ceramide-enriched membrane domains; Infection of Vero cells with SARS-CoV-2 (in words) [7]: prevented Vero cells from being infected with SARS-CoV-2
9 | CC[C@H]1OC(=O)[C@H](C)[C@@H](O[C@H]2C[C@@](C)(OC)[C@@H](O)[C@H](C)O2)[C@H](C)[C@@H](O[C@@H]2O[C@H](C)C[C@H](N(C)C)[C@H]2O)[C@](C)(O)C[C@@H](C)CN(C)[C@H](C)[C@@H](O)[C@]1(C)O [azithromycin] |  |  |  | Effect on mortality in patients hospitalized with COVID-19 (in words) [8]: non-significant effect on mortality
10 | CNCCCN1c2ccccc2CCc2ccccc21 [desipramine] |  | inhibited ASM; also recorded: in vitro inhibit acid sphingomyelinase with varying degrees |  | Formation of ceramide-enriched membrane domains (in words) [6]: inhibited ASM and the formation of ceramide-enriched membrane domains; Infection of Vero cells with SARS-CoV-2 (in words) [7]: prevented Vero cells from being infected with SARS-CoV-2
11 | O=C(CCCN1CCC(O)(c2ccc(Cl)cc2)CC1)c1ccc(F)cc1 [haloperidol] |  |  |  | Anti-inflammatory effect (in words) [4]: anti-inflammatory effect was observed
12 | CCN(CCO)CCCC(C)Nc1ccnc2cc(Cl)ccc12 (stereo not drawn) [hydroxychloroquine] |  |  |  | Effect on mortality in patients hospitalized with COVID-19 (in words) [8]: non-significant effect on mortality
13 | CN(C)CCCN1c2ccccc2CCc2ccccc21 [imipramine] |  | inhibited ASM; also recorded: in vitro inhibit acid sphingomyelinase with varying degrees |  | Formation of ceramide-enriched membrane domains (in words) [6]: inhibited ASM and the formation of ceramide-enriched membrane domains; Infection of Vero cells with SARS-CoV-2 (in words) [7]: prevented Vero cells from being infected with SARS-CoV-2
14 | CNCCCC12CCC(c3ccccc31)c1ccccc12 [maprotiline] |  | inhibited ASM; also recorded: in vitro inhibit acid sphingomyelinase with varying degrees |  | Formation of ceramide-enriched membrane domains (in words) [6]: inhibited ASM and the formation of ceramide-enriched membrane domains; Infection of Vero cells with SARS-CoV-2 (in words) [7]: prevented Vero cells from being infected with SARS-CoV-2
15 | Cc1nc2n(c(=O)c1CCN1CCC(c3noc4cc(F)ccc34)CC1)CCCC2 [risperidone] |  |  |  | Anti-inflammatory effect (in words) [4]: anti-inflammatory effect was observed
